Laboratory results from article PMC12148948, “Targeting enabled homolog with daunorubicin inhibits ERK1/2/c‐Fos pathway and suppresses hepatocellular carcinoma progression” (Clinical and Translational Medicine, 2025).

Molecular target: T1, enabled homolog (ENAH) (Homo sapiens, UniProt Q8N8S7)
T1 sequence (Q8N8S7 1-591): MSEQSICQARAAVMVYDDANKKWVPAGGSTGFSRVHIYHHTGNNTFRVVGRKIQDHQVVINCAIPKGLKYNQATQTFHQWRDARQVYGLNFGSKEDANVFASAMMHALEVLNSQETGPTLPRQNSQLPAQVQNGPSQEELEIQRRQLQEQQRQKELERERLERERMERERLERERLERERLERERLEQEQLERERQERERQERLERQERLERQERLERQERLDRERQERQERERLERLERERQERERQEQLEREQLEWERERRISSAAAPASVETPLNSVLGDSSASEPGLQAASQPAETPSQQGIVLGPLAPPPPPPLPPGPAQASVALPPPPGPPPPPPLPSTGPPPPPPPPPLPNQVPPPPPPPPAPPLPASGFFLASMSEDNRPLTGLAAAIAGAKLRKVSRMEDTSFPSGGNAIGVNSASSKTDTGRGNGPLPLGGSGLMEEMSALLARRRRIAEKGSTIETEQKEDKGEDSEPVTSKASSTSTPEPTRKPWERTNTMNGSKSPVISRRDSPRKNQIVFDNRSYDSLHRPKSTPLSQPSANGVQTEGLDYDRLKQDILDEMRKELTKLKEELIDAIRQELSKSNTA
Assay: CETSA in HCCLM3 cells ([…] daunorubicin), western blot
Type: cell-based

COc1cccc2c1C(=O)c1c(O)c3c(c(O)c1C2=O)C[C@@](O)(C(C)=O)C[C@@H]3O[C@H]1C[C@H](N)[C@H](O)[C@H](C)O1 [compound 11, daunorubicin]
CETSA in HCCLM3 cells (1 μM daunorubicin), western blot: The interaction between ENAH and daunorubicin was confirmed by the cellular thermal shift assay (CETSA)
